Assay results as given in ChEMBL document CHEMBL3259655, “Anthranilic acid derivatives as novel ligands for farnesoid X receptor (FXR)” (Bioorg Med Chem, 2014).
pEC50: −log10 of the molar value. In brackets after ≈: the same amount, converted by molar mass. Activity calls are given as the source filed them. The rule behind the calls is not given here.

Columns and labels:
[1] = molecular target: T1, Bile acid receptor (Homo sapiens) (UniProt Q96RI1); experiment: Agonist activity at human FXR expressed in human HeLa cells assessed as transactivation at 30 uM after 24 hrs by luciferase reporter gene assay relative to GW4064; assay type: cell-based
T1 sequence (whole entry): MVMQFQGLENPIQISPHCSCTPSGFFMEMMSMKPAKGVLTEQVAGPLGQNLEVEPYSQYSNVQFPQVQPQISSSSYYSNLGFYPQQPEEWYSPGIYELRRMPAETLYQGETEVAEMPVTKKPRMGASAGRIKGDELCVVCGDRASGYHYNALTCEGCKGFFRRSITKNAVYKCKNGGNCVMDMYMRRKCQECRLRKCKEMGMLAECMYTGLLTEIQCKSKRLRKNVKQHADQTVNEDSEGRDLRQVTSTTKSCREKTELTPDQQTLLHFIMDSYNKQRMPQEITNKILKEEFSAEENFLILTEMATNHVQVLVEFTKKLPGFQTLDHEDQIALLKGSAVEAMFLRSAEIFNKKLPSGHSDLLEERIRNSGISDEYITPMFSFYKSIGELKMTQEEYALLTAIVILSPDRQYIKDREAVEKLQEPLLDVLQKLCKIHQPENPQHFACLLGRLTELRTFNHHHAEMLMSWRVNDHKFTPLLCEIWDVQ

Bile acid receptor = molecular target: T2, Bile acid receptor (Homo sapiens, UniProt Q96RI1); experiment: Agonist activity at human FXR expressed in human HeLa cells assessed as transactivation after 24 hrs by luciferase reporter gene assay; assay type: cell-based
T2 sequence (Q96RI1 whole entry): T1 sequence (whole entry)

[2] = molecular target: T1, Bile acid receptor (Homo sapiens); experiment: Agonist activity at human FXR expressed in human HeLa cells assessed as transactivation after 24 hrs by luciferase reporter gene assay relative to GW4064; assay type: cell-based
HepG2 [3] = experiment: Cytotoxicity against human HepG2 cells at 60 uM after 48 hrs by WST-1 assay relative to control; assay type: cell-based; conditions: hepg2, 48 h
HeLa [4] = experiment: Cytotoxicity against human HeLa cells at 60 uM after 48 hrs by WST-1 assay; assay type: cell-based
[5] = Aqueous solubility of the compound; assay type: physicochemical; conditions: water
HepG2 [6] = experiment: Cytotoxicity against human HepG2 cells at 100 uM after 48 hrs by WST-1 assay relative to control; assay type: cell-based; conditions: hepg2, 48 h
HepG2 [7] = experiment: Cytotoxicity against human HepG2 cells at 10 uM after 48 hrs by WST-1 assay relative to control; assay type: cell-based; conditions: hepg2, 48 h
HepG2 [8] = experiment: Cytotoxicity against human HepG2 cells at 30 uM after 48 hrs by WST-1 assay relative to control; assay type: cell-based; conditions: hepg2, 48 h
[9] = Metabolic stability in Sprague-Dawley rat liver microsomes assessed as compound remaining at 10 uM after 15 mins by HPLC analysis; assay type: ADME; conditions: read-out: Stability
[10] = Metabolic stability in Sprague-Dawley rat liver microsomes assessed as compound remaining at 10 uM after 60 mins by HPLC analysis; assay type: ADME; conditions: read-out: Stability
[11] = Metabolic stability in Sprague-Dawley rat liver microsomes assessed as compound remaining at 10 uM after 30 mins by HPLC analysis; assay type: ADME; conditions: read-out: Stability
[12] = molecular target: T1, Bile acid receptor (Homo sapiens); experiment: Agonist activity at human FXR expressed in human HeLa cells assessed as transactivation at 3 uM after 24 hrs by luciferase reporter gene assay relative to GW4064; assay type: cell-based
HeLa [13] = experiment: Cytotoxicity against human HeLa cells at >10 uM after 48 hrs by WST-1 assay; assay type: cell-based
[14] = molecular target: T3, Prostaglandin E synthase (Homo sapiens) (UniProt O14684); experiment: Inhibition of mPGES1 mediated PGE2 production in IL-1beta stimulated human A549 cells at 10 uM by RP-HPLC analysis; assay type: cell-based
T3 sequence (whole entry): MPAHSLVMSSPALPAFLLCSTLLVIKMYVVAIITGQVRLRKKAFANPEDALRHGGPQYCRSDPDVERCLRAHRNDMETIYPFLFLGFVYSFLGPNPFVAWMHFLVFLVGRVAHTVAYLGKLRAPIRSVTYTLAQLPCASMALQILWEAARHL

[15] = molecular target: T4, Prostaglandin G/H synthase 1 (Ovis aries) (UniProt P05979); experiment: Inhibition of ovine COX1 using arachidonic acid as substrate up to 10 uM preincubated for 5 mins followed by substrate addition measured after 5 mins
T4 sequence (whole entry): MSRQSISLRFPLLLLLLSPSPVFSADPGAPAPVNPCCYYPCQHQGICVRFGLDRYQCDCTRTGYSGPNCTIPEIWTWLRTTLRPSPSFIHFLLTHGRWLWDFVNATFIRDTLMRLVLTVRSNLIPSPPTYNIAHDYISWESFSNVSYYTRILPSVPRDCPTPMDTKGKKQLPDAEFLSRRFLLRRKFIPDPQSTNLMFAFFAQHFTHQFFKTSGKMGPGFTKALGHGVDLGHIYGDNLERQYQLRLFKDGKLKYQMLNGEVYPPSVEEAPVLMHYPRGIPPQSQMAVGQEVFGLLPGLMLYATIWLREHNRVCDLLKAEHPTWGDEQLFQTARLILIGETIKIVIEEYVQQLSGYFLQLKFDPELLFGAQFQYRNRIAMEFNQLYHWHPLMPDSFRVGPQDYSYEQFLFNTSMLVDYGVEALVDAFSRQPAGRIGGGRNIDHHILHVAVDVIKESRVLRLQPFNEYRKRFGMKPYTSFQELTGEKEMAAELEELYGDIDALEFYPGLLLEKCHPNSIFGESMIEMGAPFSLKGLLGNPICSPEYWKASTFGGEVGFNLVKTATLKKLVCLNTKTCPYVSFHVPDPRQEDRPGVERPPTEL

[16] = molecular target: T5, Prostaglandin G/H synthase 2 (Homo sapiens) (UniProt P35354); experiment: Inhibition of recombinant human COX2 using arachidonic acid as substrate up to 10 uM preincubated for 5 mins followed by substrate addition measured after 5 mins
T5 sequence (whole entry): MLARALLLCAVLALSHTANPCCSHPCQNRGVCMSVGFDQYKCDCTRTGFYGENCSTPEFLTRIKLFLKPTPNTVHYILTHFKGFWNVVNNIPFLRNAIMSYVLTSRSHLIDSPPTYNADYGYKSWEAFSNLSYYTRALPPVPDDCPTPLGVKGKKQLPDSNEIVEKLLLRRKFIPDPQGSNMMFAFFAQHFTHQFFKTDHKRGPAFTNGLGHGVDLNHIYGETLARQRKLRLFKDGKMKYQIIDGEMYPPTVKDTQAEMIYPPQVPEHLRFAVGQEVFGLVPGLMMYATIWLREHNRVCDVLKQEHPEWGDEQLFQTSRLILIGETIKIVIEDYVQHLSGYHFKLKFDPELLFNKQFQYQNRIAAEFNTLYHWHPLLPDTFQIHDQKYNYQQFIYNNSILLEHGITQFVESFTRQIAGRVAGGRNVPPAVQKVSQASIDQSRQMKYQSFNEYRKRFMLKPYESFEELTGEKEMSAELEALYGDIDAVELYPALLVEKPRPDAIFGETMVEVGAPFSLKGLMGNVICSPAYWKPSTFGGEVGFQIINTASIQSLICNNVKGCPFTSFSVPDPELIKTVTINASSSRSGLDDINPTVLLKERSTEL

[17] = molecular target: T6, Polyunsaturated fatty acid 5-lipoxygenase (Homo sapiens) (UniProt P09917); experiment: Inhibition of 5-LO in human polymorphonuclear leukocytes using arachidonic acid as substrate at 10 uM preincubated for 15 mins followed by substrate addition measured after 10 mins by HPLC analysis in presence of Ca2+-ionophore A23187; assay type: cell-based
T6 sequence (whole entry): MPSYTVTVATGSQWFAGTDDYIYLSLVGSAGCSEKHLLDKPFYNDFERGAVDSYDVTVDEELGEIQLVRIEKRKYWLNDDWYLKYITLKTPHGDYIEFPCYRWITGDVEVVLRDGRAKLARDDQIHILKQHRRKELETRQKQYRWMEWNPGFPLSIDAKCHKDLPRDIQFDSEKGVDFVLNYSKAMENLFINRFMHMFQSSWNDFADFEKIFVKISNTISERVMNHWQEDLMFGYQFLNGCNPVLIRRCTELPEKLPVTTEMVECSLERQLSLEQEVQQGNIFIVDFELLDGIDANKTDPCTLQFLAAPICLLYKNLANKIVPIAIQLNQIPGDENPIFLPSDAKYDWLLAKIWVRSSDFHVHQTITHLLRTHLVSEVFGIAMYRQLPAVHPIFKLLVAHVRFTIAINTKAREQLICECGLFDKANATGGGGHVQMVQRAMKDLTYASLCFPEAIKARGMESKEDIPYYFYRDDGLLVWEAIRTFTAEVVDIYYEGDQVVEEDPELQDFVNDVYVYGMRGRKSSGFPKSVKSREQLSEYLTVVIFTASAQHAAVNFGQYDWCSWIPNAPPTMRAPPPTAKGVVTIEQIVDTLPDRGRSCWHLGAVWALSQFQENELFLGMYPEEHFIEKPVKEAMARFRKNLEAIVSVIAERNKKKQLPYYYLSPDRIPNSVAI

In the case of `O=C(O)CCCNC(=O)c1ccccc1NC(=O)c1cccc2ccccc12`, the max activation [1] was “inactive”.
In the case of `O=C(O)Cc1ccc(NC(=O)c2ccccc2NC(=O)c2ccc3ccccc3c2)cc1`, the pEC50 (Bile acid receptor) was 5.51 and the max activation [2] was 9.8%.
With `O=C(O)c1cccc(NC(=O)c2ccccc2NC(=O)c2ccc3ccccc3c2)c1` the Activity (HepG2 [3]) was 50%, the Activity (HeLa [4]) was “Non-toxic” and the pEC50 (Bile acid receptor) was 5.82. For the same compound, the solubility [5] was 0.3 µg/mL (≈ 0.731 µM), the max activation [2] was 37% and the Activity (HepG2 [6]) was 46%. It also gave an Activity (HepG2 [7]) of 93%, an Activity (HepG2 [8]) of 65% and a remaining at 0.25 h, 10 µM [9] of 86%. For the same compound, the remaining at 1 h, 10 µM [10] was 61% and the remaining at 0.5 h, 10 µM [11] was 76%.
With `O=C(O)CCCNC(=O)c1ccccc1NCc1ccc2ccccc2c1` the max activation [1] was “inactive”.
With `CN(CCCC(=O)O)C(=O)c1ccccc1NC(=O)c1ccc2ccccc2c1` the max activation [1] was “inactive”.
Compound `CC(C)(C)c1ccc(C(=O)Nc2ccccc2C(=O)NCCCC(=O)O)cc1` has a pEC50 (Bile acid receptor) of 5.60 and a max activation [2] of 19%.
In the case of `O=C(O)CCCNC(=O)c1ccccc1NC(=O)c1cc([N+](=O)[O-])cc([N+](=O)[O-])c1`, the max activation [1] was “inactive”.
For `O=C(O)CCCNC(=O)c1ccccc1NC(=O)c1cccc(-c2ccccc2)c1`, the max activation [1] was “inactive”.
With `O=C(O)CCCNC(=O)c1ccccc1NC(=O)C(c1ccccc1)c1ccccc1` the max activation [12] was “inactive” and the Activity (HeLa [13]) was “Toxic”.
For `O=C(O)CCCNCc1ccccc1NC(=O)c1ccc2ccccc2c1`, the max activation [1] was “inactive”.
Compound `CCc1ccc(C(=O)Nc2ccccc2C(=O)NCCCC(=O)O)cc1` has a pEC50 (Bile acid receptor) of 5.24 and a max activation [2] of 28%.
For `O=C(O)CCCNC(=O)c1ccccc1NC(=O)c1ccncc1`, the max activation [1] was “inactive”.
For `COC(=O)CCCNC(=O)c1ccccc1NC(=O)c1ccc2ccccc2c1`, the pEC50 (Bile acid receptor) was 5.15 and the max activation [2] was 19%.
With `O=C(O)CCCNC(=O)c1ccccc1NC(=O)c1ccccc1-c1ccccc1` the max activation [1] was “inactive”.
For `O=C(O)CCCNC(=O)c1ccccc1NC(=O)c1ccc2ccccc2c1`, the inhibition [14] was “inactive”, the inhibition [15] was “inactive” and the Activity (HepG2 [3]) was 81%. For the same compound, the Activity (HeLa [4]) was “Non-toxic”, the inhibition [16] was “inactive” and the inhibition [17] was “inactive”. For the same compound, the pEC50 (Bile acid receptor) was 5.07, the solubility [5] was 45 µg/mL (≈ 120 µM) and the max activation [2] was 37%. It also gave an Activity (HepG2 [6]) of 84%, an Activity (HepG2 [7]) of 92% and an Activity (HepG2 [8]) of 90%. For the same compound, the remaining at 0.25 h, 10 µM [9] was 93%, the remaining at 1 h, 10 µM [10] was 92% and the remaining at 0.5 h, 10 µM [11] was 93%.
In the case of `O=C(O)CCCNC(=O)c1ccccc1NS(=O)(=O)c1ccc2ccccc2c1`, the max activation [1] was “inactive”.
For `Cc1ccc(C(=O)Nc2ccccc2C(=O)NCCCC(=O)O)cc1`, the max activation [1] was 11%.
For `O=C(O)CCCNC(=O)c1ccccc1NC(=O)CC(c1ccccc1)c1ccccc1`, the max activation [1] was “inactive”.
With `O=C(O)CCCNC(=O)c1ccccc1NC(=O)/C=C/c1ccccc1` the pEC50 (Bile acid receptor) was 6.14 and the max activation [2] was 12.4%.
Work on `O=C(O)CCCCNC(=O)c1ccccc1NC(=O)c1ccc2ccccc2c1` yielded a pEC50 (Bile acid receptor) of 5.08 and a max activation [2] of 11.4%.
With `O=C(O)CCCNC(=O)c1ccccc1NC(=O)Cc1ccc2ccccc2c1` the max activation [1] was “inactive”.
With `COc1ccc(C(=O)Nc2ccccc2C(=O)NCCCC(=O)O)cc1` the max activation [12] was “inactive” and the Activity (HeLa [13]) was “Toxic”.
In the case of `O=C(O)c1ccc(CNC(=O)c2ccccc2NC(=O)c2ccc3ccccc3c2)cc1`, the pEC50 (Bile acid receptor) was 5.89 and the max activation [2] was 10%.
In the case of `O=C(O)CCCNC(=O)c1ccccc1NC(=O)c1ccc(-c2ccccc2)cc1`, the max activation [12] was “inactive” and the Activity (HeLa [13]) was “Toxic”.
In the case of `CN(C(=O)c1ccc2ccccc2c1)c1ccccc1C(=O)NCCCC(=O)O`, the max activation [1] was “inactive”.
With `O=C(O)CCCNC(=O)c1ccccc1NC(=O)CCc1ccccc1` the max activation [1] was “inactive”.
With `O=C(O)CCCNC(=O)c1ccccc1NC(=O)c1cccs1` the max activation [12] was “inactive” and the Activity (HeLa [13]) was “Toxic”.
Work on `O=C(O)c1ccc(NC(=O)c2ccccc2NC(=O)c2ccc3ccccc3c2)cc1` yielded a pEC50 (Bile acid receptor) of 6.00 and a max activation [2] of 23%.
Compound `O=C(O)CCCCCNC(=O)c1ccccc1NC(=O)c1ccc2ccccc2c1` has a pEC50 (Bile acid receptor) of 5.36 and a max activation [2] of 10.4%.
